For 25 molecules, IC50 and inhibition results are on record in patent publication US8134015B2, “Compound inhibiting in vivo phosphorous transport and medicine containing the same” (Kyowa Hakko Kirin Co., Ltd., priority 2003, dated 2012).

By IC50 is commonly meant the concentration that gives 50% inhibition. The term inhibition denotes the relative decrease from the control value, in per cent.

Bounds are passed on as bounds.

One assay concerns the target T1, rat NaPi-2b (Rattus norvegicus, UniProt Q9JJ09).
T1 construct: expressed in transfected cells; host or cells: Xenopus oocytes injected with cRNA
T1 sequence (Q9JJ09 1-695): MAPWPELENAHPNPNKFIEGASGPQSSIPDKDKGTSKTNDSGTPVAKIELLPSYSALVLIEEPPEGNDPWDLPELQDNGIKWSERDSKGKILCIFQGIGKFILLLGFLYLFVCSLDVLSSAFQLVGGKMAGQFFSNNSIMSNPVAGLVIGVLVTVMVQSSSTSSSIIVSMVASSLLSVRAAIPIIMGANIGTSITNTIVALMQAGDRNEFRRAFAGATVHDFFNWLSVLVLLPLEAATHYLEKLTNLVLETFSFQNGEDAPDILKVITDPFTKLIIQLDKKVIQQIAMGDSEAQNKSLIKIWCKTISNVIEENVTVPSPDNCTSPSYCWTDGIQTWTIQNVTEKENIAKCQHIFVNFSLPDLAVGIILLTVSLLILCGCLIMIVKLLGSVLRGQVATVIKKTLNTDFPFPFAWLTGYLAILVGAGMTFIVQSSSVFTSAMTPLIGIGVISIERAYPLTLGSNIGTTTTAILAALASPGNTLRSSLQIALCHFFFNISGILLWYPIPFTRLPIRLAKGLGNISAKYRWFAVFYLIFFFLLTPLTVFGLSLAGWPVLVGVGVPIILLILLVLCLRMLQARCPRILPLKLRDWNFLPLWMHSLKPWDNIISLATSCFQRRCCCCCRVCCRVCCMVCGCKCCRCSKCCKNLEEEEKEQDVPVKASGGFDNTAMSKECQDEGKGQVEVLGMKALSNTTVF
The assay can be described thus: Sodium-dependent phosphate uptake of Xenopus oocytes which expressed NaPi-2b (32P). It counts as cell-based. To be noted: Xenopus oocytes expressing rat NaPi-2b, 32P radioactive phosphorus; read-out: IC50 (phosphate uptake inhibitory activity). Put shortly:
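Rat NaPi-2b cloned from small-intestine cDNA; cRNA injected into Xenopus oocytes, expression for 2 days. Phosphate uptake inhibition measured with 32P; percent inhibition at 300 μM and 100 μM read from the same inhibition curve.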
For the molecule `O=C(Nc1sc2c(c1C(=O)N/N=C/c1ccc(Cl)c(C(F)(F)F)c1)CCCC2)c1cccc(CN2CCC(CO)CC2)c1` [Compound 643, N-[3-(4-Chloro-3-trifluoromethyl-benzylidene-hydrazinocarbonyl)-4,5,6,7-tetrahydro-benzo[b]thiophen-2-yl]-3-(4-hydroxymethyl-piperidin-1-ylmethyl)-benzamide], the IC50 turned out to be 3.68 µM.

As to `CCN(CC)CCN(C)Cc1cccc(C(=O)Nc2ccc(OCCCCF)cc2C(=O)N/N=C/c2ccc(Cl)c(C(F)(F)F)c2)c1` [Compound 1060, N-[2-(4-Chloro-3-trifluoromethyl-benzylidene-hydrazinocarbonyl)-4-(4-fluoro-butoxy)-phenyl]-3-{[(2-diethylamino-ethyl)-methyl-amino]-methyl}-benzamide], the IC50 is 0.44 µM. Still for that read-out and setting: for `COc1ccc(C(=O)Nc2ccccc2C(=O)N/N=C/c2cc(OC)c(OC)c(OC)c2)cc1OC` [Compound 12, 3,4-Dimethoxy-N-[2-(3,4,5-trimethoxy-benzylidene-hydrazinocarbonyl)-phenyl]-benzamide] the value was 4.51 µM; for `COc1ccc(C(=O)Nc2ccccc2C(=O)N/N=C/c2ccc(OC(F)(F)F)cc2)cc1OC` [Compound 33, 3,4-Dimethoxy-N-[2-(4-trifluoromethoxy-benzylidene-hydrazinocarbonyl)-phenyl]-benzamide], 15 µM; for `O=C(Nc1ccc(Br)cc1C(=O)N/N=C/c1ccc(Cl)c(C(F)(F)F)c1)c1ccc(CN2CCC(N3CCCCC3)CC2)cc1` [Compound 313, 4-[1,4′]Bipiperidinyl-1′-ylmethyl-N-[4-bromo-2-(4-chloro-3-trifluoromethyl-benzylidene-hydrazinocarbonyl)-phenyl]-benzamide], 1.24 µM. Same read-out and setting: the value for `Cc1csc(NC(=O)c2cccc(CN3CCN(CCO)CC3)c2)c1C(=O)N/N=C/c1ccc(Cl)c(C(F)(F)F)c1` [Compound 579, N-[3-(4-Chloro-3-trifluoromethyl-benzylidene-hydrazinocarbonyl)-4-methyl-thiophen-2-yl]-3-[4-(2-hydroxy-ethyl)-piperazin-1-ylmethyl]-benzamide] was under 3 µM; that for `CCN(CC)CCN(C)Cc1cccc(C(=O)Nc2ccc(OCC3CCCCC3)cc2C(=O)N/N=C/c2ccc(C)c(C)c2)c1` [Compound 1048, N-[4-Cyclohexylmethoxy-2-(3,4-dimethyl-benzylidene-hydrazinocarbonyl)-phenyl]-3-{[(2-diethylamino-ethyl)-methyl-amino]-methyl}-benzamide] was under 1 µM. On the same count and under the same terms, the value for `CCN(CCO)Cc1ccc(C(=O)Nc2ccc(Cl)cc2C(=O)N/N=C/c2ccc(C)c(C)c2)cc1` [Compound 436, N-[4-Chloro-2-(3,4-dimethyl-benzylidene-hydrazinocarbonyl)-phenyl]-4-{[ethyl-(2-hydroxy-ethyl)-amino]-methyl}-benzamide] was 8.36 µM; that for `CCN(CCO)Cc1ccc(C(=O)Nc2ccc(Cl)cc2C(=O)N/N=C/c2ccc(OC)cc2)cc1` [Compound 439, N-[4-Chloro-2-(4-methoxy-benzylidene-hydrazinocarbonyl)-phenyl]-4-{[ethyl-(2-hydroxy-ethyl)-amino]-methyl}-benzamide] was 28.7 µM; that for `COc1ccc(C(=O)Nc2cc(Cl)ccc2C(=O)N/N=C/c2cccc(O)c2)cc1OC` [Compound 75, N-[5-Chloro-2-(3-hydroxy-benzylidene-hydrazinocarbonyl)-phenyl]-3,4-dimethoxy-benzamide] was 12.8 µM. On to `COc1ccc(/C=N/NC(=O)c2c(C)csc2NC(=O)c2cccc(CN3CCN(CCO)CC3)c2)cc1` [Compound 580, 3-[4-(2-Hydroxy-ethyl)-piperazin-1-ylmethyl]-N-[3-(4-methoxy-benzylidene-hydrazinocarbonyl)-4-methyl-thiophen-2-yl]-benzamide], for which the IC50 is under 3 µM. The same measure, in the same setting: for `COc1ccc(C(=O)Nc2ccc(Cl)cc2C(=O)N/N=C/c2cccc(C)c2)cc1OC` [Compound 67, N-[4-Chloro-2-(3-methyl-benzylidene-hydrazinocarbonyl)-phenyl]-3,4-dimethoxy-benzamide] the value was 0.65 µM; for `O=C(Nc1ccc(Br)cc1C(=O)N/N=C/c1cccc(F)c1)c1ccc(CN2CCC(CO)CC2)cc1` [Compound 336, N-[4-Bromo-2-(3-fluoro-benzylidene-hydrazinocarbonyl)-phenyl]-4-(4-hydroxymethyl-piperidin-1-ylmethyl)-benzamide], 16.6 µM. In the case of `COc1ccc(/C=N/NC(=O)c2c(C)csc2NC(=O)c2cccc(CN3CCC(O)CC3)c2)cc1` [Compound 598, 3-(4-Hydroxy-piperidin-1-ylmethyl)-N-[3-(4-methoxy-benzylidene-hydrazinocarbonyl)-4-methyl-thiophen-2-yl]-benzamide], the IC50 came out at 53 µM. Consider `Cc1cccc(/C=N/NC(=O)c2cc(Cl)ccc2NC(=O)c2cccc(CSc3nnnn3CCN(C)C)c2)c1` [Compound 464, N-[4-Chloro-2-(3-methyl-benzylidene-hydrazinocarbonyl)-phenyl]-3-[1-(2-dimethylamino-ethyl)-1H-tetrazol-5-ylsulfanylmethyl]-benzamide], for which the IC50 came out at 5 µM. The same measure, in the same setting: the value for `COc1ccc(C(=O)Nc2ccc(Br)cc2C(=O)N/N=C/c2ccc(Cl)cc2)cc1OC` [Compound 60, N-[4-Bromo-2-(4-chloro-benzylidene-hydrazinocarbonyl)-phenyl]-3,4-dimethoxy-benzamide] was 1.58 µM; that for `O=C(Nc1ccc(N2CCCCC2)cc1C(=O)N/N=C/c1ccc(Cl)c(C(F)(F)F)c1)c1cccc(CN2CCC(O)CC2)c1` [Compound 874, N-[2-(4-Chloro-3-trifluoromethyl-benzylidene-hydrazinocarbonyl)-4-piperidin-1-yl-phenyl]-3-(4-hydroxy-piperidin-1-ylmethyl)-benzamide] was under 0.3 µM. Same read-out and setting: the value for `COc1ccccc1/C=C/C=N/NC(=O)c1cc(Br)ccc1NC(=O)c1ccncc1` [Compound 353, N-{4-Bromo-2-[3-(2-methoxy-phenyl)-allylidene-hydrazinocarbonyl]-phenyl}-isonicotinamide] was 8.85 µM.

With `O=C(Nc1ccc(N2CCCCC2)cc1C(=O)N/N=C/c1cccc(F)c1)c1cccc(CN2CCC(O)CC2)c1` [Compound 873, N-[2-(3-Fluoro-benzylidene-hydrazinocarbonyl)-4-piperidin-1-yl-phenyl]-3-(4-hydroxy-piperidin-1-ylmethyl)-benzamide], the IC50 stood at 0.66 µM.

Regarding `CCN(CC)CCN(C)Cc1cccc(C(=O)Nc2ccc(OCCOCCOC)cc2C(=O)N/N=C/c2ccc(Cl)c(C(F)(F)F)c2)c1` [Compound 1036, N-{2-(4-Chloro-3-trifluoromethyl-benzylidene-hydrazinocarbonyl)-4-[2-(2-methoxy-ethoxy)-ethoxy]-phenyl}-3-{[(2-diethylamino-ethyl)-methyl-amino]-methyl}-benzamide], the IC50 amounted to 1.5 µM. The same measure, in the same setting: the value for `O=C(Nc1ccc(Br)cc1C(=O)N/N=C/c1ccc(F)cc1)c1ccc(CSCCCO)cc1` [Compound 276, N-[4-Bromo-2-(4-fluoro-benzylidene-hydrazinocarbonyl)-phenyl]-4-(3-hydroxy-propylsulfanylmethyl)-benzamide] was 6.2 µM; that for `CCN(CC)CCN(C)Cc1ccc(C(=O)Nc2ccc(Br)cc2C(=O)N/N=C/c2ccc(Cl)c(C(F)(F)F)c2)cc1` [Compound 289, N-[4-Bromo-2-(4-chloro-3-trifluoromethyl-benzylidene-hydrazinocarbonyl)-phenyl]-4-{[(2-diethylamino-ethyl)-methyl-amino]-methyl}-benzamide] was 2.89 µM.

On to `Cc1ccc(/C=N/NC(=O)c2cc(Br)ccc2NC(=O)c2ccc(CN(C)CC(O)c3ccc(O)cc3)cc2)cc1C` (stereo not shown) [Compound 724, N-[4-Bromo-2-(3,4-dimethyl-benzylidene-hydrazinocarbonyl)-phenyl]-4-({[2-hydroxy-2-(4-hydroxy-phenyl)-ethyl]-methyl-amino}-methyl)-benzamide], for which the 50% inhibitory concentration (IC50) amounted to 17.1 µM.

Staying with this assay, now noted: phosphate uptake, oocytes expressing rat NaPi-2b; 300 μM, determined from inhibition curve.
Take `Cc1ccc(/C=N/NC(=O)c2cc(Br)ccc2NC(=O)c2ccc(CN3CCN(c4ccccn4)CC3)cc2)cc1` [Compound 773, N-[4-Bromo-2-(4-methyl-benzylidene-hydrazinocarbonyl)-phenyl]-4-(4-pyridin-2-yl-piperazin-1-ylmethyl)-benzamide]: the inhibition at 300 µM was 53.9%. The same measure, in the same setting: the value for `Cc1ccc(/C=N/NC(=O)c2cc(Cl)ccc2NC(=O)c2cccc(CN(C)CCCN(C)Cc3cccc(C(=O)Nc4ccc(Cl)cc4C(=O)N/N=C/c4ccc(C)cc4)c3)c2)cc1` [Compound 702, N1-[4-Chloro-2-({2-[(E)-1-(4-methylphenyl)methylidene]-hydrazino}carbonyl}phenyl}-3-{[{3-[(3-{[4-chloro-2-({2-[(E)-1-(4-methylphenyl)methylidene]hydrazino}carbonyl}anilino}carbonyl}benzyl}(methyl)amino)propyl)(methyl)amino]methyl]benzamide] was 49.2%.
